Structures are written as SMILES.

The target of experiment [1] is Kelch domain of human KEAP1 (321-624 aa) (Homo sapiens (Human), UniProt Q14145). The experiment in a line: KEAP1 KELCH ThermoFluor binding assay.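 Also: Ligand-induced melting temperature shift of E. coli-expressed KEAP1 Kelch protein, Kd estimated from concentration-response curves of ΔTm.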 Particulars: KEAP Kelch […], 1,8-ANS, pH 7.0, average of results obtained, read-out: Tf Kd. On the technique in general: In DSF a fluorescence change marks the thermal transition of the protein.
Chain of Kelch domain of human KEAP1 (321-624 aa) (Q14145 321-624): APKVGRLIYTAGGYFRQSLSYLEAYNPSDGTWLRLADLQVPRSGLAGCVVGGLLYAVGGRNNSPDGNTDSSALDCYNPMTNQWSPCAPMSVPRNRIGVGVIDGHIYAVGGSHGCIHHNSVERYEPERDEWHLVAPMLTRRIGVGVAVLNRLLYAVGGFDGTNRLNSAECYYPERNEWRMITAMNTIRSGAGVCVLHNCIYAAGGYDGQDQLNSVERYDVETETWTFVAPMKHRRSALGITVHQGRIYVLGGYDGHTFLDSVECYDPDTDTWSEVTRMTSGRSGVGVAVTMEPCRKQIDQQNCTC
In experiment [2] the test system is Glo-Response ARE-luc2P HEK293 cell line. Nature of the experiment: ARE luciferase reporter cell-based assay.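 Also: luciferase signal tracks Nrf2 activation of the ARE once compounds disrupt KEAP1-Nrf2 binding, read with One-Glo reagent, DMSO serving as low control.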 Particulars: Homo sapiens, HEK293, 24 h, average of results obtained. For orientation: A reporter such as luciferase makes a cellular process visible.

In the case of `Cc1ccc([C@H](c2ccn3c(C(F)(F)F)nnc3c2C)C(C)(C)C(=O)O)cc1CN1C[C@@H]2CCCCN2c2ncc(C#N)cc2S1(=O)=O` (single isomer, unassigned) [Example 425, (*R)-3-(3-(((*S)-3-cyano-5,5-dioxido-7,7a,8,9,10,11-hexahydro-6H-dipyrido[2,1-d:2′,3′-f][1,2,5]thiadiazepin-6-yl)methyl)-4-methylphenyl)-2,2-dimethyl-3-(8-methyl-3-(trifluoromethyl)-[1,2,4]triazolo[4,3-a]pyridin-7-yl)propanoic Acid], the Kd in experiment [1] was below 1 nM. The same compound registered an EC50 in experiment [2] of 96.9 nM.
Consider `Cc1ccc([C@@H](c2ccc3c(nnn3CC3CC3)c2C)C(C)(C)C(=O)O)cc1CN1CC2(CCOCC2)Oc2ncccc2S1(=O)=O` (single isomer, unassigned) [Example 428, (S*)-3-(1-(cyclopropylmethyl)-4-methyl-1H-benzo[d][1,2,3]triazol-5-yl)-3-(3-((1′,1′-dioxido-2,3,5,6-tetrahydrospiro[pyran-4,4′-pyrido[2,3-b][1,4,5]oxathiazepin]-2′(3′H)-yl)methyl)-4-methylphenyl)-2,2-dimethylpropanoic Acid], for which, in experiment [1], the Kd is below 1 nM. This compound yielded an EC50 in experiment [2] of 399 nM.
On to `Cc1ccc([C@@H](c2ccn3c(C(F)(F)F)nnc3c2C)C(C)(C)C(=O)O)cc1CN1CC(C)(C)Oc2ncccc2S1(=O)=O` (single isomer, unassigned) [Example 430, (*S)-3-(3-((4,4-dimethyl-1,1-dioxido-3,4-dihydro-2H-pyrido[2,3-b][1,4,5]oxathiazepin-2-yl)methyl)-4-methylphenyl)-2,2-dimethyl-3-(8-methyl-3-(trifluoromethyl)-[1,2,4]triazolo[4,3-a]pyridin-7-yl)propanoic Acid], for which the Kd in experiment [1] was 7830 nM. This compound also returned an EC50 in experiment [2] of 647 nM.
In the case of `Cc1ccc([C@H](c2ccn3c(C(F)(F)F)nnc3c2C)C(C)(C)C(=O)O)cc1CN1CC(C)(C)Oc2ncccc2S1(=O)=O` (single isomer, unassigned) [Example 431, (*R)-3-(3-((4,4-dimethyl-1,1-dioxido-3,4-dihydro-2H-pyrido[2,3-b][1,4,5]oxathiazepin-2-yl)methyl)-4-methylphenyl)-2,2-dimethyl-3-(8-methyl-3-(trifluoromethyl)-[1,2,4]triazolo[4,3-a]pyridin-7-yl)propanoic Acid], in experiment [1], the Kd was below 1 nM. This compound gave an EC50 in experiment [2] of 2.84 nM.
For the compound `Cc1ccc([C@H](CC(=O)O)c2ccn3c(C(F)(F)F)nnc3c2C)cc1CN1CC2(CCOCC2)Oc2ncccc2S1(=O)=O` (single isomer, unassigned) [Example 432, (*S)-3-(3-((1′,1′-dioxido-2,3,5,6-tetrahydrospiro[pyran-4,4′-pyrido[2,3-b][1,4,5]oxathiazepin]-2′(3′H)-yl)methyl)-4-methylphenyl)-3-(8-methyl-3-(trifluoromethyl)-[1,2,4]triazolo[4,3-a]pyridin-7-yl)propanoic Acid], in experiment [1], the Kd was below 1 nM. The EC50 in experiment [2] is 103 nM.
For the compound `Cc1cc2cc([C@@H](CC(=O)O)c3ccc(C)c(CN4C[C@H]5CCCN5c5ncccc5S4(=O)=O)c3)n(C)c2nn1` (single isomer, unassigned) [Example 435, (*S)-3-(3,7-Dimethyl-7H-pyrrolo[2,3-c]pyridazin-6-yl)-3-(3-(((R)-5,5-dioxido-7a,8,9,10-tetrahydropyrido[2,3-f]pyrrolo[2,1-d][1,2,5]thiadiazepin-6(7H)-yl)methyl)-4-methylphenyl)propanoic Acid], the Kd in experiment [1] worked out at 119 nM. The EC50 in experiment [2] is above 20000 nM.
For the compound `Cc1cc2cc([C@H](CC(=O)O)c3ccc(C)c(CN4C[C@H]5CCCN5c5ncccc5S4(=O)=O)c3)n(C)c2nn1` (single isomer, unassigned) [Example 436, (*R)-3-(3,7-Dimethyl-7H-pyrrolo[2,3-c]pyridazin-6-yl)-3-(3-(((R)-5,5-dioxido-7a,8,9,10-tetrahydropyrido[2,3-f]pyrrolo[2,1-d][1,2,5]thiadiazepin-6(7H)-yl)methyl)-4-methylphenyl)propanoic Acid], the Kd in experiment [1] was below 1 nM. In addition, in experiment [2], the EC50 stood at 2230 nM.
For `Cc1cc2cc([C@@H](CC(=O)O)c3ccc(C)c(CN4C[C@@H]5CCCN5c5ncccc5S4(=O)=O)c3)n(C)c2nn1` (single isomer, unassigned) [Example 438, (*S)-3-(3,7-Dimethyl-7H-pyrrolo[2,3-c]pyridazin-6-yl)-3-(3-(((S)-5,5-dioxido-7a,8,9,10-tetrahydropyrido[2,3-f]pyrrolo[2,1-d][1,2,5]thiadiazepin-6(7H)-yl)methyl)-4-methylphenyl)propanoic Acid], the Kd in experiment [1] was 234 nM. The compound further returned an EC50 in experiment [2] above 20000 nM.
For the compound `Cc1cc2cc([C@H](CC(=O)O)c3ccc(C)c(CN4C[C@@H]5CCCN5c5ncccc5S4(=O)=O)c3)n(C)c2nn1` (single isomer, unassigned) [Example 439, (*R)-3-(3,7-Dimethyl-7H-pyrrolo[2,3-c]pyridazin-6-yl)-3-(3-(((S)-5,5-dioxido-7a,8,9,10-tetrahydropyrido[2,3-f]pyrrolo[2,1-d][1,2,5]thiadiazepin-6(7H)-yl)methyl)-4-methylphenyl)propanoic Acid], the equilibrium dissociation constant (Kd) in experiment [1] was 1.26 nM. In experiment [2], the EC50 stood at 2440 nM.
On to `Cc1cc2cc([C@@H](CC(=O)O)c3ccc(C)c(CN4C[C@@H]5CCCCN5c5ncccc5S4(=O)=O)c3)n(C)c2nn1` (single isomer, unassigned) [Example 441, (*S)-3-(3,7-Dimethyl-7H-pyrrolo[2,3-c]pyridazin-6-yl)-3-(3-(((*S)-5,5-dioxido-7,7a,8,9,10,11-hexahydro-6H-dipyrido[2,1-d:2′,3′-f][1,2,5]thiadiazepin-6-yl)methyl)-4-methylphenyl)propanoic Acid], for which the Kd in experiment [1] turned out to be 60.3 nM. This compound came in with an EC50 in experiment [2] above 20000 nM.
As to `Cc1cc2cc([C@H](CC(=O)O)c3ccc(C)c(CN4C[C@@H]5CCCCN5c5ncccc5S4(=O)=O)c3)n(C)c2nn1` (single isomer, unassigned) [Example 442, (*R)-3-(3,7-Dimethyl-7H-pyrrolo[2,3-c]pyridazin-6-yl)-3-(3-(((*S)-5,5-dioxido-7,7a,8,9,10,11-hexahydro-6H-dipyrido[2,1-d:2′,3′-f][1,2,5]thiadiazepin-6-yl)methyl)-4-methylphenyl)propanoic Acid], the Kd in experiment [1] is below 1 nM. In addition, in experiment [2], the midpoint of the response, the EC50, lay at 553 nM.
`Cc1cc2cc([C@@H](CC(=O)O)c3ccc(C)c(CN4C[C@H]5CCCCN5c5ncccc5S4(=O)=O)c3)n(C)c2nn1` (single isomer, unassigned) [Example 444, (*S)-3-(3,7-Dimethyl-7H-pyrrolo[2,3-c]pyridazin-6-yl)-3-(3-(((*R)-5,5-dioxido-7,7a,8,9,10,11-hexahydro-6H-dipyrido[2,1-d:2′,3′-f][1,2,5]thiadiazepin-6-yl)methyl)-4-methylphenyl)propanoic Acid]: in experiment [1], the Kd was found to be 21.3 nM. Further, the EC50 in experiment [2] was above 20000 nM.
`Cc1cc2cc([C@H](CC(=O)O)c3ccc(C)c(CN4C[C@H]5CCCCN5c5ncccc5S4(=O)=O)c3)n(C)c2nn1` (single isomer, unassigned) [Example 445, (*R)-3-(3,7-Dimethyl-7H-pyrrolo[2,3-c]pyridazin-6-yl)-3-(3-(((*R)-5,5-dioxido-7,7a,8,9,10,11-hexahydro-6H-dipyrido[2,1-d:2′,3′-f][1,2,5]thiadiazepin-6-yl)methyl)-4-methylphenyl)propanoic Acid]: in experiment [1], the Kd is below 1 nM. In addition, in experiment [2], the midpoint of the response, the EC50, lay at 716 nM.
Consider `Cc1ccc([C@@H](CC(=O)O)c2ccn3c(C(F)F)nnc3c2C)cc1CN1C[C@@H]2CCCCN2c2ncccc2S1(=O)=O` (single isomer, unassigned) [Example 448, (*R)-3-(3-(Difluoromethyl)-8-methyl-[1,2,4]triazolo[4,3-a]pyridin-7-yl)-3-(3-(((*S)-5,5-dioxido-7,7a,8,9,10,11-hexahydro-6H-dipyrido[2,1-d:2′,3′-f][1,2,5]thiadiazepin-6-yl)methyl)-4-methylphenyl)propanoic Acid], for which, in experiment [1], the Kd was below 1 nM. For the same compound, the response in experiment [2] was half-maximal at 218 nM (EC50).
With `Cc1ccc([C@H](CC(=O)O)c2ccn3c(C(F)F)nnc3c2C)cc1CN1C[C@H]2CCCN2c2ncccc2S1(=O)=O` (single isomer, unassigned) [Example 450, (*S)-3-(3-(Difluoromethyl)-8-methyl-[1,2,4]triazolo[4,3-a]pyridin-7-yl)-3-(3-(((R)-5,5-dioxido-7a,8,9,10-tetrahydropyrido[2,3-f]pyrrolo[2,1-d][1,2,5]thiadiazepin-6(7H)-yl)methyl)-4-methylphenyl)propanoic Acid], the Kd in experiment [1] was below 1 nM. The concentration for a half-maximal effect (EC50) in experiment [2] stood at 25.1 nM.
Regarding `Cc1ccc([C@@H](CC(=O)O)c2ccn3c(C(F)F)nnc3c2C)cc1CN1C[C@H]2CCCN2c2ncccc2S1(=O)=O` (single isomer, unassigned) [Example 451, (*R)-3-(3-(Difluoromethyl)-8-methyl-[1,2,4]triazolo[4,3-a]pyridin-7-yl)-3-(3-(((R)-5,5-dioxido-7a,8,9,10-tetrahydropyrido[2,3-f]pyrrolo[2,1-d][1,2,5]thiadiazepin-6(7H)-yl)methyl)-4-methylphenyl)propanoic Acid], the Kd in experiment [1] was below 1 nM. This compound registered a concentration giving a half-maximal response (EC50) in experiment [2] of 265 nM.
For the compound `Cc1ccc([C@H](CC(=O)O)c2ccn3c(C(F)(F)F)nnc3c2C)cc1CN1C[C@@H]2CCC(F)(F)CN2c2ncccc2S1(=O)=O` (single isomer, unassigned) [Example 453, (*S)-3-(3-(((*S)-10,10-Difluoro-5,5-dioxido-7,7a,8,9,10,11-hexahydro-6H-dipyrido[2,1-d:2′,3′-f][1,2,5]thiadiazepin-6-yl)methyl)-4-methylphenyl)-3-(8-methyl-3-(trifluoromethyl)-[1,2,4]triazolo[4,3-a]pyridin-7-yl)propanoic Acid], in experiment [1], the Kd was below 1 nM. The same compound registered an EC50 in experiment [2] of 162 nM.

By Kd is commonly meant the concentration at which binding is half-saturated. For orientation: EC50 means the concentration giving half of the maximal effect. High values mean lower potency in that assay, low ones higher potency in that assay.

The record behind these values is patent publication US10947252B2, “Inhibitors of KEAP1-Nrf2 protein-protein interaction” (Janssen Pharmaceutica NV, priority 2018, dated 2021).
